Measurements: US10597388B2, “Pyridazinone herbicides” (FMC CORPORATION, priority 2014, dated 2020)

What was measured:
Assay in all cases: Test D controlled growth environment herbicide test, pre- and postemergence
Type in all cases: in vivo
[1] = system: Russian thistle (Salsola kali)
In short: (§1)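 Rating is visual, 0–100 scale (100 = complete control), made against untreated plants 14–21 d after treatment in controlled growth conditions. Postemergence sprays went onto 1- to 4-leaf plants in peat medium; preemergence sprays onto silt loam after sowing; formulation included a surfactant.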

[2] = system: blackgrass (Alopecurus myosuroides)
In short: as §1

[3] = system: bromegrass, downy (downy bromegrass, Bromus tectorum)
In short: as §1

[4] = system: buckwheat, wild (wild buckwheat, Polygonum convolvulus)
In short: as §1

[5] = system: chamomile (scentless chamomile, Matricaria inodora)
In short: as §1

[6] = system: field violet (Viola arvensis)
In short: as §1

[7] = system: galium (catchweed bedstraw, Galium aparine)
In short: as §1

kochia (Kochia scoparia) = system: kochia (Kochia scoparia)
In short: as §1

[8] = system: lambsquarters (Chenopodium album)
In short: as §1

[9] = system: oat, wild (wild oat, Avena fatua)
In short: as §1

[10] = system: oilseed rape (Brassica napus)
In short: as §1

[11] = system: pigweed (Amaranthus retroflexus)
In short: as §1

[12] = system: speedwell (bird's-eye speedwell, Veronica persica)
In short: as §1

[13] = Postemergence, 31 g ai/ha, scale 0 to 100 (0 no effect, 100 complete control)
[14] = Postemergence, 125 g ai/ha, visual rating on scale 0 (no effect) to 100 (complete control), 14 to 21 d
[15] = Postemergence, 250 g ai/ha, scale 0 to 100 (0 no effect, 100 complete control)
[16] = Preemergence, 62 g ai/ha, scale 0 to 100 (0 no effect, 100 complete control)
[17] = Preemergence, 125 g ai/ha, scale 0 to 100 (0 no effect, 100 complete control)
[18] = Preemergence, 250 g ai/ha, scale 0 to 100 (0 no effect, 100 complete control)
[19] = postemergence, 62 g ai/ha, scale 0 to 100, 0 no effect, 100 complete control

## CCC(=O)Oc1c(C)nn(C)c(=O)c1-c1c(C)sc2c(C)cc(C)cc12 [Compound 28]
[1]; [13]
  Russian Thistle plant response rating: 70
[1]; [14]
  Plant response rating, Russian Thistle: 80
[1]; [15]
  Plant response rating, Russian Thistle: 85
[1]; Preemergence, 31 g ai/ha
  Plant response rating (scale of 0 to 100), Russian Thistle: 0
[1]; [16]
  Plant response rating, Russian Thistle: 0
[1]; [17]
  Plant response rating, Russian Thistle: 15
[1]; [18]
  Plant response rating, Russian Thistle: 35
[1]; [19]
  Plant response rating, Russian Thistle: 75
[2]; [13]
  Blackgrass plant response rating: 75
[2]; [14]
  Plant response rating, Blackgrass: 85
[2]; [15]
  Plant response rating, Blackgrass: 85
[2]; Preemergence, 31 g ai/ha
  Plant response rating (scale of 0 to 100), Blackgrass: 85
[2]; [16]
  Plant response rating, Blackgrass: 85
[2]; [17]
  Plant response rating, Blackgrass: 85
[2]; [18]
  Blackgrass plant response rating: 95
[2]; [19]
  Plant response rating, Blackgrass: 80
[3]; [13]
  Bromegrass, Downy plant response rating: 15
[3]; [14]
  Plant response rating, Bromegrass, Downy: 40
[3]; [15]
  Plant response rating, Bromegrass, Downy: 70
[3]; Preemergence, 31 g ai/ha
  Plant response rating (scale of 0 to 100), Bromegrass, Downy: 45
[3]; [16]
  Plant response rating, Bromegrass, Downy: 55
[3]; [17]
  Plant response rating, Bromegrass, Downy: 70
[3]; [18]
  Plant response rating, Bromegrass, Downy: 85
[3]; [19]
  Plant response rating, Bromegrass, Downy: 25
[4]; [13]
  Buckwheat, Wild plant response rating: 100
[4]; [14]
  Plant response rating, Buckwheat, Wild: 100
[4]; [15]
  Plant response rating, Buckwheat, Wild: 100
[4]; Preemergence, 31 g ai/ha
  Plant response rating (scale of 0 to 100), Buckwheat, Wild: 0
[4]; [16]
  Plant response rating, Buckwheat, Wild: 0
[4]; [17]
  Plant response rating, Buckwheat, Wild: 20
[4]; [18]
  Plant response rating, Buckwheat, Wild: 100
[4]; [19]
  Plant response rating, Buckwheat, Wild: 100
[5]; [13]
  Chamomile plant response rating: 85
[5]; [14]
  Plant response rating, Chamomile: 90
[5]; [15]
  Plant response rating, Chamomile: 95
[5]; Preemergence, 31 g ai/ha
  Plant response rating (scale of 0 to 100), Chamomile: 100
[5]; [16]
  Plant response rating, Chamomile: 95
[5]; [17]
  Plant response rating, Chamomile: 100
[5]; [18]
  Plant response rating, Chamomile: 100
[5]; [19]
  Plant response rating, Chamomile: 90
[6]; [13]
  Field Violet plant response rating: 80
[6]; [14]
  Plant response rating, Field Violet: 85
[6]; [15]
  Plant response rating, Field Violet: 90
[6]; Preemergence, 31 g ai/ha
  Plant response rating (scale of 0 to 100), Field Violet: 75
[6]; [16]
  Plant response rating, Field Violet: 85
[6]; [17]
  Plant response rating, Field Violet: 100
[6]; [18]
  Plant response rating, Field Violet: 100
[6]; [19]
  Plant response rating, Field Violet: 75
[7]; [13]
  Galium plant response rating: 100
[7]; [14]
  Plant response rating, Galium: 100
[7]; [15]
  Plant response rating, Galium: 100
[7]; Preemergence, 31 g ai/ha
  Plant response rating (scale of 0 to 100), Galium: 15
[7]; [16]
  Plant response rating, Galium: 60
[7]; [17]
  Plant response rating, Galium: 85
[7]; [18]
  Plant response rating, Galium: 100
[7]; [19]
  Plant response rating, Galium: 100
Kochia (Kochia scoparia); [13]
  Kochia plant response rating: 35
Kochia (Kochia scoparia); [14]
  Plant response rating, Kochia: 50
Kochia (Kochia scoparia); [15]
  Plant response rating, Kochia: 75
Kochia (Kochia scoparia); Preemergence, 31 g ai/ha
  Plant response rating (scale of 0 to 100), Kochia: 20
Kochia (Kochia scoparia); [16]
  Plant response rating, Kochia: 20
Kochia (Kochia scoparia); [17]
  Plant response rating, Kochia: 30
Kochia (Kochia scoparia); [18]
  Plant response rating, Kochia: 65
Kochia (Kochia scoparia); [19]
  Plant response rating, Kochia: 40
[8]; [13]
  Lambsquarters plant response rating: 80
[8]; [14]
  Plant response rating, Lambsquarters: 90
[8]; [15]
  Plant response rating, Lambsquarters: 90
[8]; Preemergence, 31 g ai/ha
  Plant response rating (scale of 0 to 100), Lambsquarters: 100
[8]; [16]
  Plant response rating, Lambsquarters: 100
[8]; [17]
  Plant response rating, Lambsquarters: 100
[8]; [18]
  Plant response rating, Lambsquarters: 100
[8]; [19]
  Plant response rating, Lambsquarters: 85
[9]; [13]
  Oat, Wild plant response rating: 75
[9]; [14]
  Plant response rating, Oat, Wild: 90
[9]; [15]
  Plant response rating, Oat, Wild: 95
[9]; Preemergence, 31 g ai/ha
  Plant response rating (scale of 0 to 100), Oat, Wild: 85
[9]; [16]
  Plant response rating, Oat, Wild: 85
[9]; [17]
  Plant response rating, Oat, Wild: 90
[9]; [18]
  Plant response rating, Oat, Wild: 100
[9]; [19]
  Plant response rating, Oat, Wild: 85
[10]; [13]
  Oilseed Rape plant response rating: 65
[10]; [14]
  Plant response rating, Oilseed Rape: 65
[10]; [15]
  Plant response rating, Oilseed Rape: 85
[10]; Preemergence, 31 g ai/ha
  Plant response rating (scale of 0 to 100), Oilseed Rape: 0
[10]; [16]
  Plant response rating, Oilseed Rape: 0
[10]; [17]
  Plant response rating, Oilseed Rape: 10
[10]; [18]
  Plant response rating, Oilseed Rape: 25
[10]; [19]
  Plant response rating, Oilseed Rape: 65
[11]; [13]
  Pigweed plant response rating: 75
[11]; [14]
  Plant response rating, Pigweed: 100
[11]; [15]
  Plant response rating, Pigweed: 90
[11]; Preemergence, 31 g ai/ha
  Plant response rating (scale of 0 to 100), Pigweed: 90
[11]; [16]
  Plant response rating, Pigweed: 100
[11]; [17]
  Plant response rating, Pigweed: 100
[11]; [18]
  Plant response rating, Pigweed: 100
[11]; [19]
  Plant response rating, Pigweed: 90
[12]; [13]
  Speedwell plant response rating: 60
[12]; [14]
  Plant response rating, Speedwell: 100
[12]; [15]
  Plant response rating, Speedwell: 100
[12]; Preemergence, 31 g ai/ha
  Plant response rating (scale of 0 to 100), Speedwell: 95
[12]; [16]
  Plant response rating, Speedwell: 95
[12]; [17]
  Plant response rating, Speedwell: 95
[12]; [18]
  Plant response rating, Speedwell: 100
[12]; [19]
  Plant response rating, Speedwell: 85
